Test results as given in patent US12213992B2, “Iron containing composition and use thereof” (RENAPHARMA AB, priority 2018, dated 2025).

How the values were obtained:
[1] = Tissue distribution of 59Fe; format: in vivo, mouse; conditions: iron deficient mice, 4 hours after oral gavage, compared with the other iron source
Method: Anaemic mice were generated using the method of Latunde-Dada et al, J. Nutr. 144 (2014) 1896-902. Mice (3 weeks old) were split into 4 groups (n=6), two groups were fed with normal iron diet (48 mg iron/Kg) and the other two with iron deficient diet (3 mg iron/kg) for 6 weeks. Before the experiment haemoglobin levels were measured to confirm the differences between the normal group and the iron deficient groups. The day before the treatment with ^59Fe labelled iron, all the mice were deprived of food overnight with water ad libitum. Normal (non anaemic) and iron deficient (anaemic) mice were gavaged with either 100 μl of the formulation of Example 4, or with ^59FeSO4-ascorbic acid (1:1) ([Fe]=21 mM). Four hours after the oral gavage the mice were sacrificed and tissues collected.
The tissues from the ^59Fe uptake study were used for an investigation of iron distribution (FIGS. 4-7). In the normal animals the majority of the iron is in the “carcase” (probably in blood and lymph).

[2] = tested on: anaemic mice; test: Haemoglobin levels in anaemic mice after treatment with oral iron (haemoglobin repletion study); format: in vivo, CD1 mice; conditions: 10 days of gavage (Fe; 21 mM, 100 μl)
From the text: The procedure for this study was adopted from well established techniques (Kajarabille et al, Brit. J. Nutrition, 117 (2017) 767-774) (FIG. 8). There was a change of haemoglobin levels between the anaemic (12.8±2.4 g/dL) and normal animals (19.55±2.4 g/dL) (FIG. 9).
Male CD1 mice (3 weeks of age) were made Fe deficient by feeding a low-iron diet of 3-mg Fe/Kg diet based on the modified AIN-76A purified rodent diet (TD.80396; Harlan Teklad) for 3 weeks (i.e., until they were 6 weeks of age). Another group of mice were placed on a normal iron-sufficient diet (48-mg Fe/Kg diet) (TD.80394; Harlan Teklad) to serve as control. The diets were of identical composition except that the iron-sufficient diet contained iron added as ferric citrate. After this, blood was withdrawn from the tails to determine the initial Hb concentrations of the mice. The Fe-deficient mice were then divided into the treatment groups based on similar Hb concentrations. […] After the 10 days, the mice were weighed, anaesthetized, and blood samples were taken for Hb, serum iron, and serum ferritin determinations. The mice were then killed by anaesthesia followed by neck dislocation, and the spleen, duodenum, kidney, and liver samples were excised, snap frozen in liquid nitrogen, and stored at −70° C. until further analysis.

[3] = tested on: reduced GSH; test: Toxicity study: reduced GSH levels (ELISA); format: in vivo, CD1 mice; conditions: anaemic mice, 20 mM Fe, 100 μL, 10 days
Method: (§1) After the last dose, the mice were provided with water ad libitum for 18 hours before sacrifice and collection of tissues. Tissues were stored at −70° C. until subjection to various toxicological investigations. […] Tests were made with respect to the following parameters: • 1. Lipid peroxidation (MDA measurement) • 2. GSH levels • 3. Catalase levels • 4. Non-heme iron levels • 5. Plasma ferritin levels Methodology
(§2) The collection of the duodenum was achieved by taking the first 5 cm after the pylorus. The section was opened transversally, and the mucosa was removed using a glass slide.
The assay was performed according to manufacturer's instructions.

[4] = Non-heme iron levels in liver; format: in vivo, CD1 mice; conditions: anaemic mice, 20 mM Fe, 100 μL, 10 days
Method: as §1
Non-heme iron was assayed according to the method of Foy et al. (Analytical Biochem. 1967; 18:559-563) as modified by Simpson & Peters (Br J Nutr. 1990; 63:79-89). Liver tissue was washed in ice-cold PBS, weighted (70 mg), and homogenized (1:5 w:v) in 0.15M NaCl-HEPES buffer (pH 7.4) with a glass Dounce homogenizer. 100 μl of the resulted extracted was boiled with 200 μl of TCA-sodium pyrophosphate and boil for 10 min, centrifuged at 10,000 RPM and collected the supernatant, the boiled extraction and centrifugation was repeated twice. From the total supernatant collection, 200 μL was mixed with 100 μL 4 of 0.23M ascorbic acid, 80 µL of 10 mM ferrozine and 420 μL of 2.0 M sodium-buffer acetate (pH 4.8). All samples were measured at 562 nm against the blank and compare with standard values.

[5] = tested on: ferritin; test: Plasma ferritin levels (mouse ELISA kit); format: in vivo, CD1 mice; conditions: anaemic mice, 20 mM Fe, 100 μL, 10 days
Method: as §1
In this assay, the ferritin present in plasma samples reacts with the anti-Ferritin antibodies which have been adsorbed to the surface of polystyrene microliter wells. The assay was performed with a kit provided by Abcam company (Catalogue number, ab157713 Ferritin, mouse ELISA kit). The plasma samples were diluted 1:40 with the assay diluent provided in the kit. The amount of enzyme bound in the complex was measured by the addition of a chromo-genic substrate, 3,3′,5,5′-tetramethylbenzidine (TMB). The colorimetric reaction was measured at 450 nm in a plate reader. The quantity of ferritin in the test sample was interpolated from the standard curve with known concentrations of ferritin.

[6] = tested on: malondialdehyde (MDA); test: Toxicity study: lipid peroxidation (MDA measurement); format: in vivo, CD1 mice; conditions: anaemic mice, 20 mM Fe, 100 μL, 10 days; ANOVA one-way test
Method: as §1, §2
Lipid peroxidation was measured by the detection of the endpoint product malondialdehyde (MDA), using the MDA microplate assay kit from Cohesion Biosciences (catalog number CAK1011). Liver tissue (70 mg) or duodenal mucosa (20 mg) were weighed and homogenized in assay buffer according with instructions of the kit manufacturer. All the samples were kept in ice during the assay. The dye reagent (Thiobarbituric acid) was brought at room temperature 30 min before the assay performance. […] The protein concentration of the extracts was analysed with the Bradford assay protocol and the MDA values were normalized against protein content.

[7] = tested on: catalase; test: Toxicity study: catalase levels; format: in vivo, CD1 mice; conditions: anaemic mice, 20 mM Fe, 100 μL, 10 days; ANOVA one-way test
Method: as §1, §2
The activity of catalase enzyme was detected by using a Catalase Kit (Arbor assay company, Catalogue number K033-H1). Mice tissues were rinsed in PBS to take out the excess of blood and weighed (100 mg of liver or 20 mg duodenal mucosa). The procedure of sample preparation and assay was performed according to manufacturing instructions. The tissue samples were homogenized in ice-cold assay medium with a glass homogenizer, centrifuged at 10,000×g for 15 min at 4 degrees. The supernatant was collected to continue with the assay. A standard with catalase-hydrogen peroxide enzyme was measured within 30 min after reconstitution. The produced colour reaction was read at 450 nm using a plate reader.

O=S(=O)([O-])[O-].[Fe+2] [FeSO4]
Fe distribution in the liver [1]: greater distribution of Fe in the liver
haemoglobin levels [2]: increased the haemoglobin levels in anaemic mice to those of normal mice
concentration of reduced GSH in liver ([3]; ANOVA one-way test): no statistical differences between the groups
concentration of reduced GSH in duodenal mucosa ([3]; P≤0.05, ANOVA one-way test): higher levels of GSH in duodenum in comparison with the untreated group
non-heme iron levels in liver, Mean [4]: 0.3637 nmol/mg
plasma ferritin levels [5]: lower than that of normal mice
concentration of malondialdehyde (MDA) in duodenal mucosa [6]: no statistical differences between the groups
concentration of malondialdehyde (MDA) in liver [6]: no statistical differences between the groups
catalase activity in duodenal mucosa [7]: no statistical differences between the groups
catalase activity in liver [7]: no statistical differences between the groups
